The values that follow come from patent US20230040770A1, “HETEROCYCLIC COMPOUND AND USE THEREOF” (TAKEDA PHARMACEUTICAL COMPANY LIMITED, priority 2019, published 2023).

Each structure is given as a SMILES string.

This assay concerns the target T1, human orexin type 2 receptor (Homo sapiens, UniProt O43614).
T1 construct: expressed in transfected cells
T1 sequence (O43614 1-444): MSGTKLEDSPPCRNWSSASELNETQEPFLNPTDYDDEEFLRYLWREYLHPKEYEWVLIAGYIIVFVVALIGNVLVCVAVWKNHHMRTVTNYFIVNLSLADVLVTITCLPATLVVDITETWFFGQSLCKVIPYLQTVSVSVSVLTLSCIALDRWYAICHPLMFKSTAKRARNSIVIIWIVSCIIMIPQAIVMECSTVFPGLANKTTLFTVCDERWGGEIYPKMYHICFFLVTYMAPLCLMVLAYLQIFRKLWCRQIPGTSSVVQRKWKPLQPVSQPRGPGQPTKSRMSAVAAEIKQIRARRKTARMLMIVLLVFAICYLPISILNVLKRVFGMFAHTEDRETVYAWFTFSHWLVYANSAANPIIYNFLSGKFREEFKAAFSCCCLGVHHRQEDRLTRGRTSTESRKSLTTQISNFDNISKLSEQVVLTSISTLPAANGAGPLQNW
The experiment in a line: Measurement of orexin type 2 receptor agonist activity (calcium indicator fluorescence, CHO cells forcibly expressing human OX2 receptor). It counts as cell-based. The note with it: compound at 3 μM; 0% = DMSO, 100% = orexin A (human) 10 nM. A digest of the protocol:
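Agonist response normalised between vehicle (0%) and orexin A at 10 nM final (100%), from kinetic Fluo-4 calcium signals recorded for about 2 min after compound addition. Cells: stable human OX2R CHO clone, dye-loaded 30 min at 37 °C plus 30 min at room temperature.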
As to `Cc1cc(F)cc(-c2cccc(C[C@H]3[C@@H](NS(=O)(=O)C4CC4)C(F)(F)CN3C(=O)N3CCC3)c2F)c1` [Example 529, N-{(2S,3R)-1-(azetidine-1-carbonyl)-2-[(2,3′-difluroo-5′-methyl[1,1′-biphenyl]-3-yl)methyl]-4,4-difluoropyrrolidin-3-yl}cyclopropanesulfonamide], the “OX2R agonist activity (3 μM, %)” value is on record as 95%.

As for `Cc1cc(F)cc(-c2cccc(C[C@H]3[C@@H](NS(=O)(=O)N(C)C)C(F)(F)CN3C(=O)N3CCC3)c2F)c1` [Example 546, N′-{(2S,3R)-1-(azetidine-1-carbonyl)-2-[(2,3′-difluoro-5′-methyl[1,1′-biphenyl]-3-yl)methyl]-4,4-difluoropyrrolidin-3-yl}-N,N-dimethylsulfuric diamide], the “OX2R agonist activity (3 μM, %)” value was 96%.

Take `O=C(N1CCC1)N1CC(F)(F)[C@H](NS(=O)(=O)C2CC2)[C@@H]1Cc1cccc(-c2cccc(F)c2)c1F` [Example 534, N-{(2S,3R)-1-(azetidine-1-carbonyl)-2-[(2,3′-difluoro[1,1′-biphenyl]-3-yl)methyl]-4,4-difluoropyrrolidin-3-yl}cyclopropanesulfonamide]: the “OX2R agonist activity (3 μM, %)” value came to 98%.

Take `CCS(=O)(=O)N[C@@H]1[C@H](Cc2cccc(-c3ccccc3)c2F)N(C(=O)[C@H]2C[C@H](F)C2)CC1(F)F` [Example 378, N-[(2S,3R)-4,4-difluoro-2-[(2-fluoro[1,1′-biphenyl]-3-yl)methyl]-1-((1r,3S)-3-fluorocyclobutane-1-carbonyl)pyrrolidin-3-yl]ethanesulfonamide]: the “OX2R agonist activity (3 μM, %)” value stood at 106%.

On to `CCS(=O)(=O)N[C@H]1[C@@H](F)CN(C(=O)C2CC2)[C@H]1Cc1cccc(-c2cccc(C)c2)c1F` [Example 514, N-{(2S,3R,4S)-1-(cyclopropanecarbonyl)-4-fluoro-2-[(2-fluoro-3′-methyl[1,1′-biphenyl]-3-yl)methyl]pyrrolidin-3-yl}ethanesulfonamide], for which the “OX2R agonist activity (3 μM, %)” value came out at 95%.

With `CN(C)C(=O)N1CC(F)(F)[C@H](NS(=O)(=O)N(C)C)[C@@H]1Cc1cccc(-c2cc(F)cc(F)c2)c1F` [Example 532, (2S,3R)-3-[(dimethylsulfamoyl)amino]-4,4-difluoro-N,N-dimethyl-2-[(2,3′,5′-trifluoro[1,1′-biphenyl]-3-yl)methyl]pyrrolidine-1-carboxamide], the “OX2R agonist activity (3 μM, %)” value is 96%.

In the case of `CCS(=O)(=O)N[C@@H]1[C@H](Cc2cccc(-c3cccc(C(F)F)c3)c2F)N(C(=O)C2CCO2)CC1(F)F` (stereo partly drawn) [Example 503, N-[(2S,3R)-2-{[3′-(difluoromethyl)-2-fluoro[1,1′-biphenyl]-3-yl]methyl}-4,4-difluoro-1-(oxetane-2-carbonyl)pyrrolidin-3-yl]ethanesulfonamide], the “OX2R agonist activity (3 μM, %)” value amounted to 89%.

`CC(C)C(=O)N1CC(F)(F)[C@H](NS(=O)(=O)C2CC2)[C@@H]1Cc1cccc(-c2ccccc2)c1F` [Example 171, N-[(2S,3R)-4,4-difluoro-2-[(2-fluoro[1,1′-biphenyl]-3-yl)methyl]-1-(2-methylpropanoyl)pyrrolidin-3-yl]cyclopropanesulfonamide]: the “OX2R agonist activity (3 μM, %)” value was 99%.

`CS(=O)(=O)N[C@@H]1[C@H](Cc2cccc(-c3cccc(F)c3)c2)N(C(=O)C23CC(C2)C3)CC1(F)F` [Example 21, N-{(2S,3R)-1-(bicyclo[1.1.1]pentane-1-carbonyl)-4,4-difluoro-2-[(3′-fluoro[1,1′-biphenyl]-3-yl)methyl]pyrrolidin-3-yl}methanesulfonamide]: the “OX2R agonist activity (3 μM, %)” value came out at 102%.

For `CCS(=O)(=O)N[C@H]1[C@@H](F)CN(C(=O)C2CC2)[C@H]1Cc1cccc(-c2cccc(Cl)c2F)c1F` [Example 520, N-[(2S,3R,4S)-2-[(3′-chloro-2,2′-difluoro[1,1′-biphenyl]-3-yl)methyl]-1-(cyclopropanecarbonyl)-4-fluoropyrrolidin-3-yl]ethanesulfonamide], the “OX2R agonist activity (3 μM, %)” value was 94%.

On to `CS(=O)(=O)N[C@@H]1[C@H](Cc2cccc(-c3ccccc3)c2F)N(C(=O)C23CC(C2)C3)CC1(F)F` [Example 78, N-{(2S,3R)-1-(bicyclo[1.1.1]pentane-1-carbonyl)-4,4-difluoro-2-[(2-fluoro[1,1′-biphenyl]-3-yl)methyl]pyrrolidin-3-yl}methanesulfonamide], for which the “OX2R agonist activity (3 μM, %)” value came to 93%.

`CS(=O)(=O)N[C@H]1[C@@H](F)CN(C(=O)C23CC(C2)C3)[C@H]1Cc1cccc(-c2cc(F)cc(F)c2)c1F` [Example 374, N-{(2S,3R,4S)-1-(bicyclo[1.1.1]pentane-1-carbonyl)-4-fluoro-2-[(2,3′,5′-trifluoro[1,1′-biphenyl]-3-yl)methyl]pyrrolidin-3-yl}methanesulfonamide]: the “OX2R agonist activity (3 μM, %)” value stood at 93%.

As to `CCS(=O)(=O)N[C@H]1[C@@H](F)CN(C(=O)C2CCO2)[C@H]1Cc1cccc(-c2cccc(F)c2F)c1F` (stereo partly drawn) [Example 307, N-{(2S,3R,4S)-4-fluoro-1-(oxetane-2-carbonyl)-2-[(2,2′,3′-trifluoro[1,1′-biphenyl]-3-yl)methyl]pyrrolidin-3-yl}ethanesulfonamide], the “OX2R agonist activity (3 μM, %)” value is recorded as 100%.

For `Cc1cccc(-c2cccc(C[C@H]3[C@@H](NS(=O)(=O)C4CC4)[C@@H](F)CN3C(=O)C3CCO3)c2F)c1F` (stereo partly drawn) [Example 487, N-[(2S,3R,4S)-2-[(2,2′-difluoro-3′-methyl[1,1′-biphenyl]-3-yl)methyl]-4-fluoro-1-(oxetane-2-carbonyl)pyrroldiin-3-yl]cyclopropanesulfonamide], the “OX2R agonist activity (3 μM, %)” value came to 95%.

Consider `O=C(C1CCO1)N1C[C@H](F)[C@H](NS(=O)(=O)C2CC2)[C@@H]1Cc1cccc(-c2cccc(Cl)c2)c1F` (stereo partly drawn) [Example 497, N-[(2S,3R,4S)-2-[(3′-chloro-2-fluoro[1,1′-biphenyl]-3-yl)methyl]-4-fluoro-1-(oxetane-2-carbonyl)pyrrolidin-3-yl]cyclopropanesulfonamide], for which the “OX2R agonist activity (3 μM, %)” value is 91%.

As to `CCS(=O)(=O)N[C@H]1[C@@H](F)CN(C(=O)C2CCO2)[C@H]1Cc1cccc(-c2cc(F)cc(F)c2)c1F` (stereo partly drawn) [Example 305, N-{(2S,3R,4S)-4-fluoro-1-(oxetane-2-carbonyl)-2-[(2,3′,5′-trifluoro[1,1′-biphenyl]-3-yl)methyl]pyrrolidin-3-yl}ethanesulfonamide], the “OX2R agonist activity (3 μM, %)” value amounted to 103%.

In the case of `CN(C)S(=O)(=O)N[C@@H]1[C@H](Cc2cccc(-c3cc(F)cc(F)c3)c2F)N(C(=O)N2CCC2)CC1(F)F` [Example 548, N′-{(2S,3R)-1-(azetidine-1-carbonyl)-4,4-difluoro-2-[(2,3′,5′-trifluoro[1,1′-biphenyl]-3-yl)methyl]pyrrolidin-3-yl}-N,N-dimethylsulfuric diamide], the “OX2R agonist activity (3 μM, %)” value stood at 94%.

For the molecule `CCS(=O)(=O)N[C@@H]1[C@H](Cc2cccc(-c3ccc(F)c(C)c3)c2F)N(C(=O)C2CCO2)CC1(F)F` (stereo partly drawn) [Example 472, N-[(2S,3R)-2-[(2,4′-difluoro-3′-methyl[1,1′-biphenyl]-3-yl)methyl]-4,4-difluoro-1-(oxetane-2-carbonyl)pyrrolidin-3-yl]ethanesulfonamide], the “OX2R agonist activity (3 μM, %)” value stood at 95%.
